For one data set, the system named is A498 ccRCC tumors. Description: Subcutaneous A498 xenograft tumor growth. Type of data set: in vivo, athymic nude mice. To be noted: oral administration in chow, 60, 180 or 600 mg/kg, 4.5 weeks. On the procedure:
SCD1 expression correlates with poor cancer patient outcomes as evidenced by decreased survival in multiple cancers including gastric, lung, ovarian and renal cell carcinoma (Figure 5a-5b, Supplementary Figure 9a-9b). […] Our findings in thyroid carcinoma similarly present discordancy between tumor response to SCD1 inhibitors and SCD1 expression. SSI-4 was tested in vivo for anti-tumorigenic activity.
Figure 5 SSI-4 attenuates tumor progression Kaplan Meier survival analysis of indicated subtypes of (a) gastric and (b) lung cancer patients sorted into high versus low SCD1 mRNA expression, for multiple disease subtypes. Patient risk assessment at indicated mean follow-up is shown. […] (h) Tumor burden of ACHN pulmonary metastasis in response to SSI-4 treatment (180mg/kg) measured by ex vivo bioluminescent flux, given in photons/second (n=5 per group). ([…]) Tumor burden of ACHN pulmonary metastasis as determined by H&E staining of lungs from (h).
A498 cells were injected subcutaneously in the flank of athymic nude mice at 1x10^6/mouse. […] Tumor burden was measured using calipers. […] Once therapy was completed, lung tissue was harvested and analyzed for tumor burden via ex vivo bioluminescent imaging, and hematoxylin and eosin (H&E) staining of formalin-fixed, paraffin-embedded lung tissue. […]

The test system of a further data set is Caki2. Description: Proliferation dose-response IC50, Caki2. As to conditions: Homo sapiens, CAKI-2; proliferative IC50, linear regression modeling of dose-response. Type of data set: cell-based. On the procedure:
(§1) Error bars indicate standard deviation for n=2 replicates. […] To evaluate inhibition of SCD1 by these molecules, we used LC/MS to quantify changes in SCD1-catalyzed conversion of stearoyl-CoA to oleoyl-CoA in response to drug treatments in vitro using SCD1 protein extracted from murine liver (Figure 3c, Supplementary Figure 2g). […] Synthesis routes and spectral data including NMR and MS are also provided (Supplementary Figures 3-6).
(§2) Cells were seeded at 5,000 cells/well in clear-bottom 96-well plates in triplicate. Drug treatment was applied at 1:1000 in reduced serum conditions (3%). […] Alternatively, cells were plated 2x10^5/well in 12-well plates (Genesee Scientific) in triplicate prior to drug treatment. After 120-hour treatment, cell number was established using a Coulter Particle Counter (Beckman). Oleic acid-albumin (Sigma Aldrich) was added to media at 5µM, and was applied adjuvant to drug treatment. Drug stocks were prepared in DMSO (Sigma) at 1000x. IC50 dosing per cell line was calculated using CalcuSyn analytical software.

Data set [1] is described as follows: Pharmacokinetics after oral (PO) and intravenous (IV) administration, serum. To be noted: male, C57BL/6, mouse; for bioavailability: absolute, from AUC0-last and nominal dose; for Cmax / half-life: po. Type of data set: in vivo, rat. The procedure: (e) Maximum serum concentration (Cmax) of SSI-4 before the administration of a second dose. (f) AUC curve to infinite time. (g) Summary of pharmacokinetics for SSI-4, where absolute bioavailability (%) is quantitated with AUC0-last and nominal dose.
Pharmacokinetic assessment was performed for SSI-4 administered to fasted male C57BL/6 mice either intravenously (IV) or by oral gavage (PO) in DMSO:PEG400:water (10:70:20) as a clear solution at 5 mg/mL (IV dosing), and 1,3 or 10 mg/mL (respectively for the PO dosing). Serum analysis was performed by LC-MS-MS.

A further data set relates to ACHN. In words: Proliferation dose-response IC50, ACHN. Type of data set: cell-based. To be noted: Homo sapiens, proliferative IC50, linear regression modeling of dose-response. The procedure: as §1, §2
Another data set has as its system Caki1. In words: Proliferation dose-response IC50, Caki1. The format is cell-based. As to conditions: Homo sapiens, CAKI-1; proliferative IC50, linear regression modeling of dose-response. The procedure: as §1, §2
The next data set concerns 4 ccRCC cell lines. Description: High-throughput proliferative screen, single point. As to conditions: in at least 2/4 ccRCC cell lines.
Data set [2] can be described thus: Tolerability of chronic treatment in tumor-bearing animals. Type of data set: in vivo, athymic nude mice. On the procedure:
Chronic treatment at the highest dose in tumor-bearing animals appeared to be well tolerated, with ‹10% reduction in body mass even at the highest dose of 600mg/kg after 4.5 weeks of daily treatment (Supplementary Figure S9d).
A498 cells were injected subcutaneously in the flank of athymic nude mice at 1x10^6/mouse. Once tumor burden reached >50mm^3, SSI-4 treatment was administered at 60, 180, or 600 mg/kg in custom AIN76 animal chow (Research Diets, Inc.), given continuously for 4.5 weeks. Tumor burden was measured using calipers. For the lung tumor study, 2 million ACHN- pSIN Luc Ub Emerald GFP cells were injected intravenously in 50µL of PBS in athymic nude mice. 54 days after implantation, animals began SSI-4 treatment (180 mg/kg, chow, continuous) for 28 days. Once therapy was completed, lung tissue was harvested and analyzed for tumor burden via ex vivo bioluminescent imaging, and hematoxylin and eosin (H&E) staining of formalin-fixed, paraffin-embedded lung tissue. 20× images were obtained using Scanscope XT and Imagescope software.
Supplementary Figure 9: Patient survival correlated with SCD1 gene expression. […] (d) Change in body weight (BW) corrected for individual total weight, recorded during in vivo dose-response to SSI-4 in A498 xenograft model (Figure 3g). […]

Like-named read-outs stand apart in the source and are kept apart here.

Description for 4 ccRCC cell lines: Using linear regression modeling generated from dose-response curves, proliferative inhibitory concentrations (IC50) of these 5 compounds were established (Figure 3b, Supplementary Figure 2b-2f).
(a) High-throughput proliferative screen
of known and novel SCD1 inhibitors in ccRCC cell lines. Dashed line represents a 40% decrease in proliferation as compared to DMSO
included as a known SCD1 inhibitor. Compounds labeled with an asterisk (*) are single-blinded known SCD1 inhibitors. (b-f) Dose-
the proliferative dose-response line graph.

For orientation: IC50 means the midpoint of a concentration-inhibition curve. Lower therefore signals greater potency in that assay. The term AUC denotes concentration integrated over time. Lower therefore signals low exposure. The Cmax is the peak of the concentration-time curve. For `CNC(=O)c1ccnc(NC(=O)N2CCC(Oc3ccccc3Cl)CC2)c1` [SSI-4], the “growth of A498 ccRCC tumors” value in the data set with A498 ccRCC tumors is “growth inhibition”. Moreover, the figures for the IC50 in the data set with Caki2, with ACHN and in the data set with Caki1 were 0.009 µM, 0.003 µM and 0.01 µM, respectively. For the same compound, the bioavailability in data set [1] (oral 10 mg/kg) was determined as 119%; in data set [1] (oral 30 mg/kg) it was 152%; in data set [1] (oral 100 mg/kg), 212%. The AUC in data set [1] (oral, 10 mg/kg) is 20900 ng·h/mL; in data set [1] (oral, 30 mg/kg), 71200 ng·h/mL; in data set [1] (oral, 100 mg/kg), 336000 ng·h/mL. For the same compound, the Cmax was about 4320 ng/mL in data set [1] (10 mg/kg), about 15900 ng/mL in data set [1] (30 mg/kg) and about 43300 ng/mL in data set [1] (100 mg/kg). Further, the half-life is 3.48 h in data set [1] (10 mg/kg, oral, 10 mg/kg, read-out: T1/2 (converted)); 2.71 h in data set [1] (30 mg/kg, oral, 30 mg/kg, read-out: T1/2 (converted)); 3.94 h in data set [1] (100 mg/kg, oral, 100 mg/kg, read-out: T1/2 (converted)); 2.71 to 3.94 h in data set [1] (100 mg/kg, range over the oral doses 10, 30, 100 mg/kg, read-out: median serum terminal half-life (T1/2)). Also, the decrease in proliferation in the data set on 4 ccRCC cell lines is given as over 40%. The primary adverse events entry in data set [2] (reversible upon discontinuation of therapy) is “Ocular changes including bilateral squinting”. Moreover, the “reduction in body mass” value in data set [2] (tumor-bearing animals, 600mg/kg, 4.5 weeks of daily treatment) was under 10%.

The values above are taken from paper PMC5787466, “Accelerated bottom-up drug design platform enables the discovery of novel stearoyl-CoA desaturase 1 inhibitors for cancer therapy” (Oncotarget, 2017).
